In patent US8927502B2, “Embedded chimeric peptide nucleic acids and uses thereof” (ICahn School of Medicine at Mount Sinai, priority 2010, dated 2015):
Read-outs that look alike come from different tables or passages of the source.

Tests used:
[1] = system: human γ-globin gene in MBC-βYAC cells; assay: γ-globin expression by quantitative RT-PCR in β-YAC mouse bone marrow cells; format: cell-based
Source text: To test this, a line of mouse bone marrow cells engineered to carry a yeast artificial chromosome that contains the complete human β-like globin locus (β-YAC) was used.
After treatment, cells were harvested and mRNA was extracted for reverse transcriptase (RT)-quantitative polymerase chain reaction (qPCR) using two different sets of published primers that recognize sequences within the γ-globin gene.
Total RNA from β-YAC MBCs were isolated with a RNeasy micro kit (Qiagen) following the manufacturer's instructions. RNA concentrations were quantified using a Nanodrop. Reverse transcription of RNA was performed with Promega's Reverse Transcription System and expression levels were quantified using a Quantitect SYBR Green PCR kit from Qiagen in conjunction with an ABI PRISM 7900HT and SDS software [see Lohmann, F. & Bieker, J. J. supra] Q-PCR results for globin expression were normalized by 2−[(Ct γ−Ct β)−(Ct γ [no PNA]−Ct β [noPNA])][see Livak, K. J. & Schmittgen, T. D., Analysis of relative gene expression data using real-time quantitative PCR and the 2(−Delta Delta C(T)) Method. Methods 25, 402-408 (2001)] divided by the PNA incorporation efficiency (determined from the live cell image data). Each reaction was performed in triplicate.

[2] = system: γ-globin promoter luciferase reporter; format: cell-based, human
Description: The γ-globin reporter contained a 1.5 Kb Human HS2 fragment upstream of the −299 to +37 human γ-globin promoter in Promega's (Madison, Wis.) pGL2 Basic plasmid. [See Caterina, J. J., Donze, D., Sun, C. […] Nucleic Acids Res 22, 2383-2391 (1994).]
Transfection of K562 cells was performed using the DMRIE lipofection method (Gibco, Invitrogen, Carlsbad, Calif.). K562 cells were counted and 1×10^5 cells were resuspended in 0.1 mL OPTI-MEM in a 12-well plate (BD Falcon, Franklin Lakes, N.J.). Experiments were all done in triplicates. 1.5 ng Renilla plasmid (Promega Corporation. Madison, Wis.) and 0.5 μg reporter construct were added to each well. After 2 hours of transfection, PNAs were added to a final concentration of 10 μM. 2 hours later, 1 ml RPMI and a final concentration of 10% FBS were added to each well. This was followed by incubation at 37° C. for 36 hours.
36 hours after PNA addition, K562 cells were collected by centrifugation at 2500 rpm. Media was discarded and cells were washed once with 1×PBS and resuspended in 250 μL 1× passive lysis buffer (PLB) (Promega). Tubes that contained cells were put on a rocker platform for 10 minutes at room temperature. Cells were then centrifuged at 13000 rpm and resuspended in 200 μL 1×PLB, loaded on a 96 well plate and further analyzed with a Turner Biosystem Microplate Luminometer. […] Mol Cell Biol 27, 8547-8560 (2007).] Luciferase values were divided by the Renilla value from the same sample after it had been divided by 1000. To minimize the differences in between loading, each sample was loaded in three different wells and the average of three was calculated.

[3] = system: PNA78 target sequence/minimal SV40 promoter luciferase reporter in 293T cells; assay: Luciferase reporter with four repeats of PNA78 target sequence and minimal SV40 promoter in 293T cells; format: cell-based
[4] = system: PNA78 target sequence/minimal SV40 promoter luciferase reporter in K562 cells; assay: Luciferase reporter with four repeats of PNA78 target sequence and minimal SV40 promoter in K562 cells; format: cell-based, human
[5] = system: human γ-globin promoter DNA oligonucleotide (wild type or mutated target sequence); settings: for binding of PNA to its target DNA oligo (bound/input): wild type vs mutant oligo, PNA 0-10 μM, 37° C. overnight
Description: FIG. 1 depicts in vitro target binding specificity of four PNAs designed to interact with the human γ-globin promoter. […] The relative location of known promoter elements within this region is also indicated. Orientation of the PNA molecule relative to the promoter sequence is shown above, with a lys at its 3′-end and a biotin molecule (circle) attached at the 5′-end. In FIG. 1(b), different concentrations of PNAs (0-10 μM) were incubated with a constant amount of radioactively labeled DNA oligonucleotide (10 nM) containing either the wild type (wt) or mutated (mut) target sequence followed by incubation with streptavidin Dynabeads and collection with a magnetic particle concentrator. Bound/input ratios were obtained after scintillation counter analysis. […] The A+G sequence ladder is shown in lane 1, along with the nucleotide sequence of the γ-globin promoter aligned on the left.
A novel assay was developed to monitor specific binding of PNA molecules to their cognate DNA site (FIG. 1(b)). 2 ng of ^32P-labelled double-stranded DNA oligonucleotide (designed at regions of the γ-promoter centered at each of the four PNA target sites) was incubated with various molar excess (0× to 1000×) of PNA at 37° C. overnight in a final volume of 15 uL with 10 mM Tris and 1 mM of EDTA. The resultant material was incubated with equal amount of Dynabeads M280-streptavidin (DYNAL biotech) for […] at 25° C. Beads had been prepared by washing twice with BW buffer (10 mM Tris, pH7.5, 1 mM EDTA, 2.0M NaCl). The beads were pulled down with a Dynal MPC-S magnetic particle concentrator and washed twice with BW buffer. Samples were finally suspended in 50 uL BW buffer, and radioactivity was counted for 10 minutes in a scintillation counter to yield the average counts per minute (cpm) taken for each sample, which was then divided by the cpm of the input (1 uL of the radio-labeled oligo).

[6] = system: endogenous γ-globin promoter; assay: Chromatin association assay in K562 cells (streptavidin bead pull-down, quantitative PCR); format: cell-based, human; settings: 10 μM in K562 cells
Source text: To determine whether PNA78 can interact with its target site in vivo, a modification of the chromatin immunoprecipitation assay was developed. […] Along with the “no addition” negative control, a variant of PNA78 that contain two point mutations (MUT PNA78) was synthesized and used it as an additional negative control along with a “TAT alone” control.
This assay incorporates elements of chromatin [see Siatecka, M., Xue, L. & Bieker, J. J., Sumoylation of EKLF promotes transcriptional repression and is involved in inhibition of megakaryopoiesis, Mol Cell Biol 27, 8547-8560 (2007)] and biotinylated protein [see Viens, A., Mechold, U., Lehrmann, H., Harel-Bellan, A. & Ogryzko, V., Use of protein biotinylation in vivo for chromatin immunoprecipitation. Anal Biochem 325, 68-76 (2004)] immunoprecipitation protocols. PNA 78/TAT or mutant (MUT) PNA 78/TAT were added to 10^7 K562 cells to a final concentration of 10 μM. After […], a portion of the cells were analyzed and quantified for PNA incorporation efficiency by confocal analysis of live cells (as above), and the rest were harvested and cross-linked with 0.4% formaldehyde (Fisher Scientific, F79-500) for 10 minutes in room temperature then quenched by addition of glycine in the final concentration of 0.125 M for another 10 minutes. […]
After 16 hours of incubation of K562 cells, any formed PNA-chromatin complex was cross-linked and cells were disrupted and chromatin was sheared by sonication. […] The DNA was purified for sequence identification by quantitative PCR. To more precisely quantitate the extent of PNA entry into the nucleus, a portion of the cells from each treatment was collected, stained with the DRAQ5 live-cell nuclear stain, attached to chamber-slides, and inspected under confocal microscopy to compare PNA and TAT nuclear entry efficiency.
One microliter of DNA was used in 20 μl of quantitative PCR reaction using a Quantitect SYBR Green PCR kit from Qiagen (Valenica, Calif.) and the presence of γ-globin promoter sequences was quantified with an ABI PRISM 7900HT and SDS software. […]

[7] = system: γ-globin promoter region −299 to +37; settings: PNA 50 uM, overnight at 37° C.
Description: To further confirm the observation in the magnetic-pull down assay, permanganate (KMnO4) probing of the PNA78/DNA interaction in solution was carried out (FIG. 1(c)). […] Methods Mol Biol 208, 91-109 (2002)], 1 ng of a singly ^32P-end-labeled, gel purified RsaI/XhoI fragment derived from the p250 plasmid that contains the γ-globin promoter region −299 to +37 was incubated in a volume of 15 μL with a final concentration of 10 mM Tris and 1 mM EDTA for 30 minutes at 37° C. PNA was added at a final concentration of 50 uM for further incubation overnight at 37° C. 1 uL 20 mM KMnO4 was added to the reaction, and after 15 s 10 uL stop buffer (1.5 M sodium acetate, 1 M 2-mercaptoethanol, Ph 7.0) was added. 2.5× vol of 96% ethanol was added and the DNA collected by centrifugation at 13000 rpm for 15 minutes. The supernatant was removed and the DNA pellet dissolved in 100 uL 10% piperidine followed by incubation at 90° C. for 20 minutes. The lympholized DNA sample was resuspended in 8 μL FA buffer (80% deionized fomamide, 10 mM EDTA, 0.25% xylenecyanol FF, 0.25% bromphenol blue). DNA was denatured at 90° C. for 2 minutes, chilled on ice, and then electrophoresed on thin 10% polyacrylamide gels containing 7 M urea. The dried gel was then exposed for autoradiography.

[8] = system: γ-globin protein in MBC-βYAC cells; settings: not detectable in untreated cells
Description: K562 cells were also stained and served as a positive control for γ-globin protein detection (arrowheads).
At 48 hours post-PNA treatment, 100K MBC-βYAC cells were collected and spun onto frosted slides (Fisher) in a Shandon Cytospin 2 centrifuge at 500 rpm for 5 minutes. All steps were carried out at room temperature except when indicated. Cells were fixed for 4 minutes in ice-cold acetone/methanol (1:1) on ice and rinsed twice with 2% BSA/PBS. Samples were then incubated with blocking solution (10% FCS, 0.05% NP40/PBS) for 30 minutes followed by a two-hour incubation with hemoglobin γ antibody (Santa Cruz Biotechnology, sc-21756) diluted 1:100 in blocking solution. Slides were washed 3× with 2% BSA, 0.05% NP40/PBS and then incubated with goat anti-mouse secondary antibody conjugated to Alexa 568 (Invitrogen) at a 1:50 dilution for one hour in a dark chamber. Slides were then washed 3× with 2% BSA/PBS with a final rinse in PBS and mounted with DAPI-containing Vectashield. DAPI and Alexa568 images were visualized on a Zeiss spinning disc confocal microscope (PerkinElmer).

[9] = system: γ-globin protein in human peripheral blood CD34+ cells
Description: (§1) K562 cells served as a positive control. FIG. 13(c) contains dot plots and histograms from toxicity analysis by flow cytometry of cultured CD34+ cells after PNA treatment.
(§2) Purified CD34+ cells were cultured, treated at the end of day 2 with the various PNA chimeras or with no PNA, and harvested 16 hours later for analysis.

[10] = system: γ-globin expression in human mobilized peripheral blood CD34+ cells; settings: treated at end of day 2, harvested 16 hours later
Description: as §1, §2

[11] = wild type γ-promoter, 10 μM, 36 hours

Bio-OO-CGSDALDDFDLDML-O-TACTCTAAGACTATT-O-YGRKKRRQRRR [Bio-ATF/PNA78/TAT]
ability to activate γ-globin expression ([1]; biotin at the extreme 5′ end): precluded its ability to activate γ-globin expression

Bio-OO-DFDLDMLGDFDLDMLG-O-TACTCTAAGACTATT-O-YGRKKRRQRRR [VP2/PNA78/TAT]
effect on activity of γ-globin luciferase reporter (superactivation) [2, 11]: little effect beyond that seen with PNA78/TAT
luciferase activity increase [3]: not observed at all
luciferase activity increase compared to non-treated cells [4]: 2.3 fold

Biotin-OO-GAGTTTAGCCAGG-O-k [PNA150]
binding of PNA to its target DNA oligo (bound/input) [5]: did not discriminate or bind well

Biotin-OO-GGCTATTGGTCAAGGC-k [PNA116]
binding to the mutant DNA target [5]: bound to the mutant DNA target to an unacceptable extent
binding of PNA to its target DNA oligo (bound/input) [5]: bound their target DNA oligo in proportion to their input

Biotin-OO-TACTATAAAACTATT-O-YGRKKRRQRRR [MUT PNA78/TAT]
interaction with target sequence within the γ-globin promoter (quantitative PCR of precipitated DNA) [6]: not higher than the ‘no addition’ control

Biotin-OO-TACTCTAAGACTATT-O-PKKKRKV [PNA78/NLS]
effect on activity of γ-globin luciferase reporter (superactivation) [2, 11]: mild

Biotin-OO-TACTCTAAGACTATT-O-YGRKKRRQRRR [PNA78/TAT]
effect on activity of γ-globin luciferase reporter (superactivation) [2]: stronger
superactivation of γ-promoter reporter mutated at the PNA78 target site [2]: negated its ability to be superactivated
interaction with target sequence within the γ-globin promoter (quantitative PCR of precipitated DNA) [6]: greater than the non-specific MUT PNA78 and TAT alone

Biotin-OO-TACTCTAAGACTATT-O-k [PNA78]
discrimination between wild type and mutant oligos [5]: ~25 fold
binding of PNA to its target DNA oligo (bound/input) [5]: bound their target DNA oligo in proportion to their input
binding to target region within the γ-globin promoter fragment [7]: binds specifically to its target region

Biotin-OO-TGTGGAACTGCTGAA-O-k [PNA7]
binding of PNA to its target DNA oligo (bound/input) [5]: did not discriminate or bind well

H2N-CGSDALDDFDLDML-Biotin-O-TACTCTAAGACTATT-O-YGRKKRRQRRR [ATF-Bio/PNA78/TAT]
γ-globin protein expression in the cytoplasm [8]: levels approaching that seen in uninduced K562 cells
γ-globin protein accumulation [9]: γ-globin protein accumulation solely in those cells
cells positive for γ-globin protein ([9]; visual analysis of ≧100 cells per field): 22%
increase of γ-globin expression compared to untreated cells [10]: ~5 fold
increase of γ-globin levels/expression ([1]; 16 hours after PNA treatment, in comparison to cells treated with PNA78/TAT alone): 7 fold

YGRKKRRQRRR [TAT alone, reference compound]
effect on activity of γ-globin luciferase reporter (superactivation) [2, 11]: no effect
interaction with target sequence within the γ-globin promoter (quantitative PCR of precipitated DNA) [6]: not higher than the ‘no addition’ control
